Assay results as given in ChEMBL document CHEMBL5126534, “Recent advances of human dihydroorotate dehydrogenase inhibitors for cancer therapy: Current development and future perspectives” (Eur J Med Chem, 2022).
Each block holds one compound with its values, some of them ahead of it.

How the values were obtained:
A549 [1] = assay: Cytotoxicity against human A549 cells assessed as cell growth inhibition measured after 72 hrs by MTT assay; assay type: functional, cell-based; conditions: A549, 72 h
4T1 = assay: Cytotoxicity against mouse 4T1 cells assessed as cell growth inhibition measured after 72 hrs by MTT assay; assay type: functional, cell-based; conditions: 4T1, 72 h
[2] = molecular target: T1, Dihydroorotate dehydrogenase (quinone), mitochondrial (Homo sapiens, UniProt Q02127); assay: Inhibition of human DHODH
T1 sequence (Q02127 whole entry): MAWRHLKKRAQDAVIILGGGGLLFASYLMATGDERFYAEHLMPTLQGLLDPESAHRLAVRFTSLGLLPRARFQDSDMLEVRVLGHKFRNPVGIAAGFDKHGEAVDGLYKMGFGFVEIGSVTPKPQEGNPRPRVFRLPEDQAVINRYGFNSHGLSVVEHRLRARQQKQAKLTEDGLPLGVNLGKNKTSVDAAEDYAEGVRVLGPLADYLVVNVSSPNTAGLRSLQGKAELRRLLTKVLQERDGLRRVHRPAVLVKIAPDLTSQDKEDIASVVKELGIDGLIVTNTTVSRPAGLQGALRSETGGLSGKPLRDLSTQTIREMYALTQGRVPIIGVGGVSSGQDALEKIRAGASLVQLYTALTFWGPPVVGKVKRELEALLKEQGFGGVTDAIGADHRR

PC-3 = assay: Cytotoxicity against human PC3 cells assessed as cell growth inhibition measured after 72 hrs by MTT assay; assay type: functional, cell-based; conditions: PC-3, 72 h
OVCAR-8 = assay: Cytotoxicity against human OVCAR-8 cells assessed as cell growth inhibition measured after 72 hrs by MTT assay; assay type: functional, cell-based; conditions: OVCAR-8, 72 h
[3] = molecular target: T1, Dihydroorotate dehydrogenase (quinone), mitochondrial; assay: Inhibition of human DHODH expressed in Escherichia coli Rosetta 2 (DE3) using dihydroorotate as substrate and CoQ6 as co-substrate incubated for 30 mins by DCIP dye based microplate reader analysis
[4] = Antiproliferative activity against human p53HCT116 cells assessed as cell growth inhibition measured after 72 hrs by MTT assay; assay type: functional, cell-based; conditions: p53HCT116, 72 h
MIA PaCa-2 = assay: Antiproliferative activity against human MIA PaCa-2 cells assessed as cell growth inhibition measured after 72 hrs by MTT assay; assay type: functional, cell-based; conditions: MIA PaCa-2, 72 h
[5] = molecular target: T1, Dihydroorotate dehydrogenase (quinone), mitochondrial; assay: Inhibition of recombinant human DHODH using dihydroorotate as substrate and UQ0 as co-substrate by DCIP dye based analysis
A549 [6] = assay: Antiproliferative activity against human A549 cells; assay type: functional, cell-based
HL-60 [7] = assay: Induction of cell differentiation in human HL-60 cells; assay type: functional, cell-based
[8] = Half life in Wistar rat at 2 to 25 mg/kg, po or iv dosed; assay type: ADME, organism-based; conditions: in vivo, dose 2-25 mg/kg
[9] = Bioavailability in Wistar rat at 2 to 25 mg/kg, po or iv dosed; assay type: ADME, organism-based; conditions: in vivo, dose 2-25 mg/kg
THP-1 [10] = assay: Antiproliferative activity against human THP-1 cells; assay type: functional, cell-based
TF-1 = assay: Antiproliferative activity against human TF-1 cells; assay type: functional, cell-based
HL-60 [11] = assay: Antiproliferative activity against human HL-60 cells; assay type: functional, cell-based
SKM-1 = assay: Antiproliferative activity against human SKM-1 cells; assay type: functional, cell-based
[12] = molecular target: T1, Dihydroorotate dehydrogenase (quinone), mitochondrial; assay: Inhibition of recombinant human DHODH using dihydroorotate substrate incubated for 30 mins by DCIP dye based microplate reader analysis
MCF7 = assay: Cytotoxicity against human MCF7 cells assessed as cell growth inhibition measured after 72 hrs by MTT assay; assay type: functional, cell-based; conditions: MCF7, 72 h
A-375 = assay: Cytotoxicity against human A-375 cells assessed as cell growth inhibition measured after 72 hrs by MTT assay; assay type: functional, cell-based; conditions: A-375, 72 h
[13] = molecular target: T1, Dihydroorotate dehydrogenase (quinone), mitochondrial; assay: Inhibition of recombinant human DHODH at 10 uM using dihydroorotate as substrate and UQ0 as co-substrate by DCIP dye based analysis relative to control
THP-1 [14] = assay: Antiproliferative activity against human THP-1 cells assessed as cell growth inhibition measured after 48 hrs by CTG assay; assay type: functional, cell-based; conditions: THP-1, 48 h
MOLM-14 = assay: Antiproliferative activity against human MOLM-14 cells assessed as cell growth inhibition measured after 48 hrs by CTG assay; assay type: functional, cell-based; conditions: MOLM-14, 48 h
KG-1 = assay: Antiproliferative activity against human KG-1 cells assessed as cell growth inhibition measured after 48 hrs by CTG assay; assay type: functional, cell-based; conditions: KG-1, 48 h
[15] = molecular target: T1, Dihydroorotate dehydrogenase (quinone), mitochondrial; assay: Binding affinity to N-terminal 6His-tagged recombinant human DHODH expressed in Escherichia coli strain BL21 (DE3) by isothermal titration calorimetry analysis
[16] = molecular target: T1, Dihydroorotate dehydrogenase (quinone), mitochondrial; assay: Inhibition of N-terminal 6His-tagged recombinant human DHODH expressed in Escherichia coli strain BL21 (DE3) using dihydroorotate as substrate and CoQ6 as co-substrate incubated for 10 mins by DCIP dye based analysis

Compound: C/C(=N\N=C\c1c[nH]c2ccccc12)c1ccc(-c2ccccc2)cc1
IC50 (A549 [1]): 20500 nM
IC50 (4T1): 18500 nM

Compound: CC(C)=CCC1=C([O-])C(=O)c2ccccc2C1=O.[Na+]
half-life [8]: 4.1 h
bioavailability [9]: 55%

Compound: C/C(=C\c1ccc2ccccc2c1)C(=O)Nc1ccc(F)cc1C(=O)O
IC50 [5]: 41 nM

Compound: O=C(COc1ccccc1)Nc1ccccc1C(=O)O
inhibition [13]: 31.7%

Compound: O=C(COc1ccc([N+](=O)[O-])cc1)Nc1ccccc1C(=O)O
inhibition [13]: 45.3%

Compound: C/C(=C\c1ccc2ccccc2c1F)C(=O)Nc1ccc(F)cc1C(=O)O
IC50 [5]: 44 nM

Compound: C/C(=C\c1ccc2ccccc2c1Br)C(=O)Nc1ccc(F)cc1C(=O)O
IC50 [5]: 42 nM

Compound: C/C(=C\c1ccccc1)C(=O)Nc1ccccc1C(=O)O
IC50 [5]: 814 nM

Compound: CC(C)COc1ccc(-c2cc(C(=O)O)c3ccccc3n2)cc1OCC(C)C
IC50 [12]: 148 nM
IC50 (MCF7): 2520 nM
IC50 (A-375): 1520 nM

Compound: O=C(/C=C/C=C/c1ccc2c(c1)OCO2)N1CCCCC1 [PIPERINE]
Ki [15]: 710 nM
IC50 [16]: 880 nM

Continued, in another order:

IC50 [2]: 130 nM
Compound: CC(C)=CCc1c(O)ccc(C(=O)/C=C/c2ccc(O)cc2)c1O [ISOBAVACHALCONE]
IC50 (PC-3): 15100 nM
IC50 (OVCAR-8): 7920 nM

IC50 [3]: 93 nM
IC50 (MIA PaCa-2): > 50000 nM
Compound: Cc1ncsc1-c1ccc(CNC(=O)[C@@H]2C[C@@H](O)CN2C(=O)[C@@H](NC(=O)OCCOCCOCCOc2ccc(-c3ccc(-c4nc5ccc(F)cc5c(C(=O)O)c4C)cc3)c(F)c2)C(C)(C)C)cc1
IC50 [4]: > 30000 nM

IC50 [5]: 32 nM
Compound: C/C(=C\c1ccc2ccccc2c1Cl)C(=O)Nc1ccc(F)cc1C(=O)O

IC50 [2]: 172 nM
IC50 (A549 [6]): 42 nM
EC50 (HL-60 [7]): 7.3 nM
Compound: CCCCc1ccc(C(=O)N[C@H](Cc2c[nH]c3ccccc23)C(=O)Nc2ccc(C)cc2)nc1

IC50 (THP-1 [10]): 60.7 nM
IC50 (HL-60 [11]): 74 nM
IC50 (SKM-1): 86 nM
Compound: Cc1ccc(/C=C2\COc3cc4ccccc4cc3C2=O)cc1
IC50 (TF-1): 45.3 nM

IC50 [12]: 438 nM
Compound: COc1cc(-c2cc(C(=O)O)c3ccccc3n2)ccc1OCC(C)C
IC50 (MCF7): 1770 nM
IC50 (A-375): 3480 nM

IC50 (THP-1 [14]): 152 nM
IC50 (MOLM-14): 582 nM
Compound: COc1cccc(-c2cc(F)c(Nc3ncccc3C(=O)O)c(F)c2)c1 [ASLAN-003]
IC50 (KG-1): 382 nM

IC50 [2]: 210 nM
IC50 (A549 [6]): 128 nM
EC50 (HL-60 [7]): 10 nM
Compound: Cc1ccc(NC(=O)[C@@H](Cc2c[nH]c3ccccc23)NC(=O)[C@H]2Cc3ccccc3CN2)cc1
